Values after ≈ are worked out from the molar mass of the structure shown.
Legend:
[1] = target: Alcohol dehydrogenase class-3 (Mus musculus, UniProt P28474); assay: Inhibition of mouse GSNOR assessed as reduction in NADH consumption after 3 mins by spectrophotometric analysis
[2] = target: Alcohol dehydrogenase class-3 (Rattus norvegicus, UniProt P12711); assay: Inhibition of rat GSNOR assessed as reduction in NADH consumption after 3 mins by spectrophotometric analysis
[3] = Metabolic stability of human liver microsomes assessed as parent compound remaining at 0.1 uM after 60 mins in presence of NADPH by LC/MS/MS analysis; type: ADME, microsome; conditions: read-out: Stability
[4] = Metabolic stability of mouse liver microsomes assessed as parent compound remaining at 0.1 uM after 60 mins in presence of NADPH by LC/MS/MS analysis; type: ADME, microsome; conditions: read-out: Stability
CYP2D6 = CYP2D6 (Homo sapiens, UniProt P10635); assay: Inhibition of CYP2D6 in human liver microsomes at 10 uM after 20 mins in presence of NADPH by LC/MS/MS analysis relative to control; type: ADME; conditions: liver microsomes
CYP3A4 = CYP3A4 (Homo sapiens, UniProt P08684); assay: Inhibition of CYP3A4 in human liver microsomes at 10 uM after 20 mins in presence of NADPH by LC/MS/MS analysis relative to control; type: ADME; conditions: liver microsomes
CYP2C9 = CYP2C9 (Homo sapiens, UniProt P11712); assay: Inhibition of CYP2C9 in human liver microsomes at 10 uM after 20 mins in presence of NADPH by LC/MS/MS analysis relative to control; type: ADME
CYP2C19 = CYP2C19 (Homo sapiens, UniProt P33261); assay: Inhibition of CYP2C19 in human liver microsomes at 10 uM after 40 mins in presence of NADPH by LC/MS/MS analysis relative to control; type: ADME
[5] = Clearance in C57/BL6 mouse at 3 mg/kg, iv; type: ADME, organism-based; conditions: in vivo
[6] = Volume of distribution in C57/BL6 mouse at 3 mg/kg, iv; type: ADME, organism-based; conditions: in vivo, read-out: Vz
[7] = Half life in C57/BL6 mouse at 3 mg/kg, iv; type: ADME, organism-based; conditions: in vivo
[8] = Cmax in C57/BL6 mouse at 30 mg/kg, po; type: ADME, organism-based; set-up: dose 30 mg/kg, route oral; conditions: in vivo
[9] = AUC (0 to 24 hrs) in C57/BL6 mouse at 30 mg/kg, po; type: ADME, organism-based; set-up: time < 24 hr, dose 30 mg/kg, route oral; conditions: in vivo
[10] = Tmax in C57/BL6 mouse at 30 mg/kg, po; type: ADME, organism-based; conditions: in vivo
[11] = Half life in C57/BL6 mouse at 30 mg/kg, po; type: ADME, organism-based; conditions: in vivo
[12] = Oral bioavailability in C57/BL6 mouse at 30 mg/kg; type: ADME, organism-based; conditions: in vivo
[13] = Ratio of drug uptake in lung to plasma of C57/BL6 mouse at 3 mg/kg, iv or 30 mg/kg, po; type: ADME, organism-based
[14] = Protein binding in human plasma at 10 uM by LC/MS/MS based equilibrium dialysis analysis; type: ADME, cell-free; conditions: read-out: PPB
[15] = Protein binding in mouse plasma at 10 uM by LC/MS/MS based equilibrium dialysis analysis; type: ADME, cell-free; conditions: read-out: PPB (converted)
[16] = Apparent permeability in human Calu3 cells; type: ADME, cell-based, Calu-3
Rattus norvegicus = species: Rattus norvegicus; assay: Displacement of [35S]dATPalphaS to rat P2Y receptor at 10 uM after 60 mins by scintillation counting analysis relative to control
Homo sapiens [17] = species: Homo sapiens; assay: Inhibition of chloride channel (unknown origin) at 10 uM relative to control
Homo sapiens [18] = species: Homo sapiens; assay: Inhibition of I2 receptor (unknown origin) at 10 uM relative to control
Homo sapiens [19] = species: Homo sapiens; assay: Inhibition of BZD receptor (unknown origin) at 10 uM relative to control
[20] = Inhibition of MT3 receptor (unknown origin) at 10 uM relative to control
[21] = Aqueous solubility of compound in DMSO; type: physicochemical
[22] = Aqueous solubility of compound in fasted state stimulated intestinal fluid at pH 6.2; type: physicochemical; conditions: fasted state simulated intestinal fluid
[23] = Aqueous solubility of compound in fed state simulated intestinal fluid at pH 5.2; type: physicochemical
[24] = Aqueous solubility of compound in acetate buffer at pH 4.5; type: physicochemical
[25] = Aqueous solubility of compound in phosphate buffer at pH 6.8; type: physicochemical
[26] = Aqueous solubility of compound in 0.1 N HCl; type: physicochemical
Mus musculus [27] = assay: (§1) Anti-inflammatory activity in C57BL/6 mouse model of cigarette smoke induced chronic obstructive pulmonary disease assessed as total leukocyte count in bronchoalveolar lavage at 3 mg/kg, po administered once daily for 7 days 1 hr prior to first smoke exposure and measured on day 8 after last smoke exposure post single drug treatment by hemocytometry; type: functional
Mus musculus [28] = assay: as §1, with “10” for “3”; type: functional
Mus musculus [29] = assay: as §1, with “30” for “3”; type: functional
Mus musculus [30] = assay: as §1, with “neutrophil” for “total leukocyte”, “Leishman's staining based assay” for “hemocytometry”; type: functional
Mus musculus [31] = assay: as §1, with “neutrophil” for “total leukocyte”, “100” for “3”, “Leishman's staining based assay” for “hemocytometry”; type: functional
Mus musculus [32] = assay: as §1, with “macrophages” for “total leukocyte”, “Leishman's staining based assay” for “hemocytometry”; type: functional
Mus musculus [33] = assay: as §1, with “macrophages” for “total leukocyte”, “10” for “3”, “Leishman's staining based assay” for “hemocytometry”; type: functional
Mus musculus [34] = assay: as §1, with “macrophages” for “total leukocyte”, “30” for “3”, “Leishman's staining based assay” for “hemocytometry”; type: functional
[35] = target: All-trans-retinol dehydrogenase [NAD(+)] ADH1B (Homo sapiens, UniProt P00325); assay: Inhibition of ADH1B (unknown origin) assessed as reduction in NADH production by spectrophotometric analysis
[36] = target: T1, Carbonyl reductase [NADPH] 1 (Homo sapiens) (UniProt P16152); assay: Inhibition of CBR1 (unknown origin) assessed as reduction in NADP+ production at 10 uM by spectrophotometric analysis relative to control
T1 sequence (whole entry): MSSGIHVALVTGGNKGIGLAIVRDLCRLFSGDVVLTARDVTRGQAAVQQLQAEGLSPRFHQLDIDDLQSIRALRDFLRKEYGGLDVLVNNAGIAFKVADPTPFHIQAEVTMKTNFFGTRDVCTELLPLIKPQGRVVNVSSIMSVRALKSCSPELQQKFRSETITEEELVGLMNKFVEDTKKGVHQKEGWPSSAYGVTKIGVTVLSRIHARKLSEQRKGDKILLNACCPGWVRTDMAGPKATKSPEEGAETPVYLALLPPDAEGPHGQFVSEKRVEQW

Sequence of Alcohol dehydrogenase class-3 (Mus musculus, UniProt P28474) (P28474 whole entry): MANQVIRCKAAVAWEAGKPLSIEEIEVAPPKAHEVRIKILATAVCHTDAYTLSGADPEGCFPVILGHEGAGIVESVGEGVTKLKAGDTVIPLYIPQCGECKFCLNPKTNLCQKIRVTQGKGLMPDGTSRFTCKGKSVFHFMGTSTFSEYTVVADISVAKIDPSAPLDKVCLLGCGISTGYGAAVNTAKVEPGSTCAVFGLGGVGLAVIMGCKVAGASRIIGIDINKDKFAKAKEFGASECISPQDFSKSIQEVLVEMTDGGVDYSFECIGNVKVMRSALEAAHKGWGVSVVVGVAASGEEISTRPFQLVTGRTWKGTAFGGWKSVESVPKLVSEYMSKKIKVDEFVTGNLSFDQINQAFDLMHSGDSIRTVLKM
Sequence of Alcohol dehydrogenase class-3 (Rattus norvegicus, UniProt P12711) (P12711 whole entry): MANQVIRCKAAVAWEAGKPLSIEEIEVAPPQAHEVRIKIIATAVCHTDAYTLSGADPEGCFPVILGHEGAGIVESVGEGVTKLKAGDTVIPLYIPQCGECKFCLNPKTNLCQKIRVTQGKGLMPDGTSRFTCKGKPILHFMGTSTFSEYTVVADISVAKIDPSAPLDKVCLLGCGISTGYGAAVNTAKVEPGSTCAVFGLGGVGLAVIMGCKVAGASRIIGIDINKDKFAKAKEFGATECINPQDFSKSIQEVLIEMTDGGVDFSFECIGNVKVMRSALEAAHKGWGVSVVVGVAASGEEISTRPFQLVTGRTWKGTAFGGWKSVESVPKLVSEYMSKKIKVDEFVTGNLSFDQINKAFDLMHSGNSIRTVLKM
Sequence of CYP2C19 (P33261 whole entry): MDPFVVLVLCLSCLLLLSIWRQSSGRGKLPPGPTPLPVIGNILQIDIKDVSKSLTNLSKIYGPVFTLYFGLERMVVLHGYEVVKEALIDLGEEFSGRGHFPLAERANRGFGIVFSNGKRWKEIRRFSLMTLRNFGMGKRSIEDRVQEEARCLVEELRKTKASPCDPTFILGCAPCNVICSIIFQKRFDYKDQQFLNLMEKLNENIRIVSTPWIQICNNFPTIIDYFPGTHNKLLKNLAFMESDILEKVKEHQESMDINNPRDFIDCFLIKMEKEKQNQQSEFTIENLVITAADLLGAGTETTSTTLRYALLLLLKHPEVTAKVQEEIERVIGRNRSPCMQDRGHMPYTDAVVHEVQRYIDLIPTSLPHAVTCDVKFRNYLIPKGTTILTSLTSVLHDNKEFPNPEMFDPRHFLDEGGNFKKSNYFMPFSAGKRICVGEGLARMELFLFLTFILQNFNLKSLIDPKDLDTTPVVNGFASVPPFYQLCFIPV
Sequence of CYP3A4 (P08684 whole entry): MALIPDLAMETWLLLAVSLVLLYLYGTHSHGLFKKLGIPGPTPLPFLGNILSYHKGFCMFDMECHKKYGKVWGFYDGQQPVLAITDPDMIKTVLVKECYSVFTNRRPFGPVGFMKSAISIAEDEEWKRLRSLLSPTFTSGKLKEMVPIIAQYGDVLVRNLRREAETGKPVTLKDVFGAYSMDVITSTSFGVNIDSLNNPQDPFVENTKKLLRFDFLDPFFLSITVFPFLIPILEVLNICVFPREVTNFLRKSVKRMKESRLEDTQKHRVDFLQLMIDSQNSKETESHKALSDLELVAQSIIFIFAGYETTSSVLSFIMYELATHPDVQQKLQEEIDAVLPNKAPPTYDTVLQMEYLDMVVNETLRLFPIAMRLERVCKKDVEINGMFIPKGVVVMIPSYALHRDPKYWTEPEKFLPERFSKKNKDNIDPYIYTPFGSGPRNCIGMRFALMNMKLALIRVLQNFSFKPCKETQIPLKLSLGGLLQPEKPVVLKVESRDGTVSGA
Sequence of CYP2C9 (P11712 whole entry): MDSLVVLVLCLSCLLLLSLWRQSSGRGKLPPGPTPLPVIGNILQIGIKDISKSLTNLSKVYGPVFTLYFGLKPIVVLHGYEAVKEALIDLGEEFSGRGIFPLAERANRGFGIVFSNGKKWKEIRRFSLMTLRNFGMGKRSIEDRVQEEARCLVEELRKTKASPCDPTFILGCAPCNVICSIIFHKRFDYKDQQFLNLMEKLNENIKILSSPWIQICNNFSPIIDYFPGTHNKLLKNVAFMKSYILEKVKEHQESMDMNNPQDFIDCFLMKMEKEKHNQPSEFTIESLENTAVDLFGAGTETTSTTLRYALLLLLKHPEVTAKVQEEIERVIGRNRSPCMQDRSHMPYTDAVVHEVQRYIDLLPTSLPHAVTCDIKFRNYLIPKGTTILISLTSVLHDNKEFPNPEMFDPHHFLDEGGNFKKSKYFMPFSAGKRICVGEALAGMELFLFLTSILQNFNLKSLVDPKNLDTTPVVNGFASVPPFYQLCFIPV
Sequence of CYP2D6 (P10635 whole entry): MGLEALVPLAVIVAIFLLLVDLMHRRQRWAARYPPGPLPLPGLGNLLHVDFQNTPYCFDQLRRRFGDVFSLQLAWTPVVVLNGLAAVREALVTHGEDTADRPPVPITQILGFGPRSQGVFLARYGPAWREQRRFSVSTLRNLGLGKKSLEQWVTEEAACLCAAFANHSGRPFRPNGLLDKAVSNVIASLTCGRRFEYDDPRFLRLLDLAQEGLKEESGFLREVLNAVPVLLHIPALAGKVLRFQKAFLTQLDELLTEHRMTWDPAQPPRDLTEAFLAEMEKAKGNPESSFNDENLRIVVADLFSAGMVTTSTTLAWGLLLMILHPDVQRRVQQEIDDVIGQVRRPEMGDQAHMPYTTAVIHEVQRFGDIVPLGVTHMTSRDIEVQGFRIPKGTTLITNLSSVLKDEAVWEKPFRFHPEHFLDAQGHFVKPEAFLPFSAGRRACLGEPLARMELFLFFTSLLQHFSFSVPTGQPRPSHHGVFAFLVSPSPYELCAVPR
Sequence of All-trans-retinol dehydrogenase [NAD(+)] ADH1B (P00325 whole entry): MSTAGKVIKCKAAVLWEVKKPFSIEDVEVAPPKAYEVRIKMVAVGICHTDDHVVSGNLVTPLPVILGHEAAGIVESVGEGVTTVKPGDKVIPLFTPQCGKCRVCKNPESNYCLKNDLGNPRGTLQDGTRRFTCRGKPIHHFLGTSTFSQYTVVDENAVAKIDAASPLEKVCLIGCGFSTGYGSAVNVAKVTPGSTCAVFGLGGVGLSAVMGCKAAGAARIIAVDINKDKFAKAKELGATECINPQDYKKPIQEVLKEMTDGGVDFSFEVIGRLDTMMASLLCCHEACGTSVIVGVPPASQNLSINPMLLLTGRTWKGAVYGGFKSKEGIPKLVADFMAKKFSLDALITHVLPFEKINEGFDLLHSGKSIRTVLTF

## Clc1cc(-c2nnn[nH]2)ccc1-c1ccc(-n2ccnc2)cc1
[1]
  IC50: 7.1 nM
[2]
  IC50: 9.1 nM
[3]
  remaining at 1 h, 0.1 µM: 100%
[4]
  remaining at 1 h, 0.1 µM: 43%
CYP2D6
  inhibition at 20 min, 10 µM: 52%
CYP3A4
  inhibition at 20 min, 10 µM: 55%
CYP2C9
  inhibition at 20 min, 10 µM: 86%
CYP2C19
  inhibition at 40 min, 10 µM: 86%
[5]
  clearance: 1.4 mL/min/kg
[6]
  Vd: 0.41 L/kg
[7]
  half-life: 3.4 h
[8]
  Cmax: 8960 ng/mL
[9]
  AUC(0-t) at 24 h: 69900 ng·h/mL
[10]
  Tmax: 2 h
[11]
  half-life: 6 h
[12]
  bioavailability: 21%
[13]
  Kp: 0.38
[14]
  fraction unbound at 10 µM: < 0.005
[15]
  fraction unbound at 10 µM: 0.015
[16]
  Papp: 8.23 ×10⁻⁶ cm/s
Rattus norvegicus
  inhibition: 59%
Homo sapiens [17]
  inhibition: 50%
Homo sapiens [18]
  inhibition: 88%
Homo sapiens [19]
  inhibition: 50%
[20]
  inhibition: 100%
[21]
  solubility: 20000 µg/mL (≈ 62000 µM)
[22]
  solubility: 3.5 µg/mL (≈ 10.8 µM)
[23]
  solubility: 0.6 µg/mL (≈ 1.86 µM)
[24]
  solubility: 1.1 µg/mL (≈ 3.41 µM)
[25]
  solubility: 7 µg/mL (≈ 21.7 µM)
[26]
  solubility: 20 µg/mL (≈ 62 µM)
Mus musculus [27]
  Activity: 32%
Mus musculus [28]
  Activity: 41%
Mus musculus [29]
  Activity: 49%
Mus musculus [30]
  Activity: 19%
Mus musculus [31]
  Activity: 47%
Mus musculus [32]
  Activity: 45%
Mus musculus [33]
  Activity: 59%
Mus musculus [34]
  Activity: 61%
[35]
  IC50: 54000 nM
[36]
  inhibition: 24%
